Assays:
[1] = compared with ergothioneine; cited from earlier work
E. coli = experiment: main culture of transformed E. coli in TY medium containing selenocystine; assay type: cell-based; conditions: TY++ line: 0.1 mM selenocystine present during the initial stage of culture, 25° C.
Experimental: In a 19 ml test tube, each of the bacterial strains shown in Table 13 was inoculated into 2.5 ml of a TY medium. The inoculated medium was then seed-cultured at 37° C. for 16 hours while agitated at 180 rpm. In a 19 ml test tube, 20 μl of the seed culture was inoculated into 2.5 ml of a TY medium containing ampicillin and 0.5 mM IPTG. The inoculated medium was then main-cultured at 25° C. for 20.5 hours while agitated at 180 rpm. Three different lines of TY medium were prepared for the main culture: a TY medium containing 0.1 mM selenocystine (TY++), a TY medium containing 0.01 mM selenocystine (TY+), and a TY medium to which selenocystine was added to 0.01 mM six hours after the start of culture (TY+∘).
In addition, the amount of selenoneine produced by the (EcEgtA+EcEgtC) transformant was higher than that of the EcEgtA transformant and the difference between the two transformants was more significant in the culture supernatants.

Structure (SMILES) | antioxidant activity relative to ergothioneine [1] | growth inhibition (E. coli)
C[N+](C)(C)[C@@H](Cc1cnc([Se-])[nH]1)C(=O)O [selenoneine] | 1,000 times | –
N[C@@H](C[Se][Se]C[C@H](N)C(=O)O)C(=O)O [selenocystine] | – | caused growth inhibition

Reference: US11629341B2, “Method for producing selenoneine” (KIKKOMAN CORPORATION, priority 2015, dated 2023)
